Test results published in the supplement of paper PMC10307832.

What was measured:
Assay in all cases: relative viability (nuclei count vs DMSO), 5 days (fraction); higher = more cells survive
[1] = compound: Cc1cc(Nc2cc(N3CCN(C)CC3)nc(Sc3ccc(NC(=O)C4CC4)cc3)n2)n[nH]1 [Tozasertib] + O=C(c1cc(Cc2n[nH]c(=O)c3ccccc23)ccc1F)N1CCN(C(=O)C2CC2)CC1 [Olaparib] (partner 8 µM)
Method in brief: (§1)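 Lung cancer cell lines in 1536-well plates were dosed by pin tool the day after seeding, either with one drug alone or with a fixed anchor-drug dose plus five library-drug doses (not always all listed) in √10 steps. After 5 days, cells were fixed and their nuclei stained in one step (final 0.05% Triton X-100, 1% formaldehyde, 1 ug/ml Hoechst), then counted on 4× images. Relative viability is the nuclei count in treated wells divided by that in vehicle wells. Values are medians of duplicate plates.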

[2] = compound: Cc1cc(Nc2cc(N3CCN(C)CC3)nc(Sc3ccc(NC(=O)C4CC4)cc3)n2)n[nH]1 [Tozasertib] + CC(=O)Nc1cccc(-n2c(=O)n(C3CC3)c(=O)c3c(Nc4ccc(I)cc4F)n(C)c(=O)c(C)c32)c1 [Trametinib] (partner 0.02 µM)
Method in brief: as §1

[3] = compound: Cc1cc(Nc2cc(N3CCN(C)CC3)nc(Sc3ccc(NC(=O)C4CC4)cc3)n2)n[nH]1 [Tozasertib] + CS(=O)(=O)CCNCc1ccc(-c2ccc3ncnc(Nc4ccc(OCc5cccc(F)c5)c(Cl)c4)c3c2)o1 [Lapatinib] (partner 2 µM)
Method in brief: as §1

[4] = compound: Cc1cc(Nc2cc(N3CCN(C)CC3)nc(Sc3ccc(NC(=O)C4CC4)cc3)n2)n[nH]1 [Tozasertib] + CC1(C)CCC(c2ccc(Cl)cc2)=C(CN2CCN(c3ccc(C(=O)NS(=O)(=O)c4ccc(N[C@H](CCN5CCOCC5)CSc5ccccc5)c(S(=O)(=O)C(F)(F)F)c4)cc3)CC2)C1 [Navitoclax] (partner 0.5 µM)
Method in brief: as §1

[5] = compound: Cc1cc(Nc2cc(N3CCN(C)CC3)nc(Sc3ccc(NC(=O)C4CC4)cc3)n2)n[nH]1 [Tozasertib] + CCNC(=O)c1noc(-c2cc(C(C)C)c(O)cc2O)c1-c1ccc(CN2CCOCC2)cc1 [Luminespib] (partner 0.01 µM)
Method in brief: as §1

Cell Line	relative viability ([1]; first compound 0.004 µM)	relative viability ([1]; first compound 0.01265 µM)	relative viability ([1]; first compound 0.04 µM)	relative viability ([1]; first compound 0.1265 µM)	relative viability ([2]; first compound 0.004 µM)	relative viability ([2]; first compound 0.01265 µM)	relative viability ([2]; first compound 0.04 µM)	relative viability ([2]; first compound 0.1265 µM)	relative viability ([3]; first compound 0.004 µM)	relative viability ([3]; first compound 0.01265 µM)	relative viability ([3]; first compound 0.1265 µM)	relative viability ([4]; first compound 0.004 µM)	relative viability ([4]; first compound 0.01265 µM)	relative viability ([4]; first compound 0.1265 µM)	relative viability ([3]; first compound 0.04 µM)	relative viability ([4]; first compound 0.04 µM)	relative viability ([5]; first compound 0.004 µM)	relative viability ([5]; first compound 0.01265 µM)	relative viability ([5]; first compound 0.04 µM)	relative viability ([5]; first compound 0.1265 µM)
HCC-78	0.885	0.705	0.98	0.758	0.821	0.478	0.824	0.632	0.985	0.58	0.643	0.822	0.633	0.539	–	–	–	–	–	–
CAL-12T	–	0.741	0.769	0.55	0.439	0.27	0.445	0.219	0.651	0.596	0.414	1.33	1.14	1.08	0.626	1.31	0.288	0.405	0.58	0.368
HCC-366	0.333	0.333	0.312	0.127	0.304	0.323	0.385	0.15	1.1	0.992	0.0536	1.09	0.945	0.752	–	1.17	–	–	–	–
EKVX	0.93	0.773	0.798	0.688	0.369	0.301	0.339	0.422	0.189	0.167	0.185	0.932	0.939	0.914	0.227	1.06	0.753	0.872	0.827	0.694
NCI-H1793	0.918	0.778	0.974	0.533	0.442	0.385	0.415	0.328	0.699	0.598	0.364	0.492	0.501	0.33	0.573	0.453	0.181	0.198	0.191	0.18
NCI-H2023	0.486	0.459	0.553	0.342	0.557	0.455	0.535	0.425	0.796	1.01	0.123	1.04	0.983	0.924	0.947	1.05	0.811	0.749	0.9	0.598
A549	0.2	0.324	0.313	0.13	–	–	–	–	1.04	0.859	0.0927	1.26	1.29	0.179	0.835	1.14	–	–	–	–
HCC-15	0.715	–	0.688	0.597	0.386	0.359	0.405	0.375	0.992	0.852	0.751	0.692	0.692	0.641	0.92	0.768	0.296	0.282	0.306	0.238
LCLC-103H	0.782	0.811	0.772	0.734	0.659	0.71	0.675	–	–	–	–	–	–	–	–	–	0.935	1.05	1.08	0.72
NCI-H1563	–	–	–	–	–	–	–	–	0.922	0.967	–	–	–	–	0.875	–	0.48	0.635	0.484	0.48
ABC-1	0.832	0.704	0.394	0.613	–	–	–	–	1.26	1.04	1.24	–	–	–	1.13	–	0.521	0.638	0.402	0.686
NCI-H358	0.555	0.562	0.56	0.187	0.137	0.0985	0.132	0.0814	0.54	0.376	0.206	–	–	–	0.439	–	0.265	0.394	0.382	0.234
NCI-H2342	0.43	0.44	0.471	0.443	0.77	0.969	0.849	0.897	–	–	–	–	–	–	–	–	0.646	–	0.697	0.767
ChaGo-K-1	0.4	0.386	0.407	0.372	0.879	0.838	0.895	0.736	–	–	–	1.13	0.946	0.3	–	1.2	0.643	0.672	0.623	0.45
NCI-H661	0.807	0.791	0.663	0.448	0.564	0.579	0.618	0.336	0.581	–	0.376	–	–	–	0.427	–	1.01	0.916	0.973	0.575
NCI-H650	0.381	0.315	0.357	0.325	1.06	0.918	0.894	0.823	1.05	0.844	0.454	–	–	–	0.991	–	0.901	0.845	0.678	0.646
NCI-H441	0.625	0.425	0.49	0.459	0.575	0.393	0.428	0.318	–	–	–	0.761	0.543	0.55	–	0.483	0.361	0.323	0.312	0.261
